Experimental data as given in patent US5783178A, “Polymer linked biological agents” (Supratek Pharma. Inc., priority 1994, dated 1998).
≈ marks a conversion by molar mass, not a printed value. Where two headings read alike, the source gives them in different places.

Key:
[1] = tested on: SK cells; test: Activity of conjugated TNFα on SK cells (XTT); type: cell-based; conditions: 24 hours
[2] = Solution stability in PBS (dissolved daunorubicin monitored by fluorescence); type: physicochemical; conditions: 37°, PBS pH 7.0, 0.2 μM
[3] = tested on: SKOV3 line of transformed cells (SK cells); test: Cytotoxicity towards SK cells (XTT); type: cell-based; conditions: Homo sapiens
[4] = tested on: SKVLB cell line (SK-resistant cells); test: Cytotoxicity towards SK-resistant cells (XTT); type: cell-based
[5] = tested on: murine myeloma cell line Sp2/0 (Sp2); test: Cytotoxicity towards Sp2 cells (XTT); type: cell-based; conditions: Mus musculus, Example 7
[6] = tested on: Sp2-resistant cell line; test: Cytotoxicity towards Sp2-resistant cells (XTT); type: cell-based, murine; conditions: Mus musculus, Example 7
[7] = tested on: Sp2-resistant myeloma cells; test: Tumor treatment, Sp2-resistant tumors; type: in vivo, female Balb C mice; conditions: i.v. at MTD
[8] = tested on: Sp2 myeloma cell line; test: Tumor treatment, Sp2 tumors; type: in vivo, female Balb C mice; conditions: i.v. at MTD
[9] = tested on: MCF-7 line of human breast cancer cells; test: Micellar agent delivery, cytotoxicity against MCF-7; type: cell-based; conditions: MCF7
[10] = tested on: MCF-7AU; test: Micellar agent delivery, cytotoxicity against MCF-7AU; type: cell-based; conditions: Homo sapiens
[11] = tested on: Dox-MCF-7; test: Micellar agent delivery, cytotoxicity against Dox-MCF-7; type: cell-based; conditions: Homo sapiens
[12] = in vivo; conditions: mouse, ip

Compound: human tumor necrosis factorα [TNFα]
- Inhibition, % (± SD) ([1]; TNFα concentration 0.01 (unit not given)): 0%
- Inhibition, % (± SD) ([1]; TNFα concentration 0.05 (unit not given)): 2 (± 2) %
- Inhibition, % (± SD) ([1]; TNFα concentration 0.2 (unit not given)): 5 (± 3) %
- Inhibition, % (± SD) ([1]; TNFα concentration 1.0 (unit not given)): 4 (± 4) %
- Inhibition, % (± SD) ([1]; TNFα concentration 5 (unit not given)): 10 (± 5) %
- Inhibition, % (± SD) ([1]; TNFα concentration 20 (unit not given)): 22 (± 5) %
- Inhibition, % (± SD) ([1]; TNFα concentration 50 (unit not given)): 35 (± 7) %
- Inhibition, % (± SD) ([1]; TNFα concentration 100 (unit not given)): 44 (± 6) %
- Inhibition, % (± SD) ([1]; TNFα concentration 200 (unit not given)): 80 (± 14) %

Compound: COc1cccc2c1C(=O)c1c(O)c3c(c(O)c1C2=O)C[C@@](O)(C(C)=O)C[C@@H]3O[C@H]1C[C@H](N)[C@H](O)[C@H](C)O1 [Free daunorubicin, daunorubicin]
- I585 (% of initial) ([2]; 0 hours incubation): 100 % of initial
- remaining at 6 h, 0.2 µM ([2]; 6 hours incubation, read-out: I585 (% of initial)): 92%
- remaining at 27 h, 0.2 µM ([2]; 27 hours incubation, read-out: I585 (% of initial)): 89%
- remaining at 43 h, 0.2 µM ([2]; 43 hours incubation, read-out: I585 (% of initial)): 68%
- remaining at 78 h, 0.2 µM ([2]; 78 hours incubation, read-out: I585 (% of initial)): 54%
- remaining at 120 h, 0.2 µM ([2]; 120 hours incubation, read-out: I585 (% of initial)): 37%
- IC50 ([3]; SK-OV-3, Example 5, 1 h exposure, 4 days culture, daunorubicin content basis, read-out: IC50): 0.32 µg/mL (≈ 0.607 µM)
- IC50 ([3]; SK-OV-3, Example 6, methods of Example 5): 5.2 µg/mL (≈ 9.86 µM)
- IC50 ([4]; Example 5, 1 h exposure, 4 days culture, daunorubicin content basis): 2.55 µg/mL (≈ 4.83 µM)
- IC50 ([4]; Example 6, methods of Example 5): 45 µg/mL (≈ 85.3 µM)
- IC50 [5]: 0.22 µg/mL (≈ 0.417 µM)
- IC50 [6]: 2.6 µg/mL (≈ 4.93 µM)
- V/V0 ([7]; day 0 after first treatment): 1
- V/V0 ([7]; day 3 after first treatment): 2.7
- V/V0 ([7]; day 6 after first treatment): 3.4
- V/V0 ([7]; day 8 after first treatment): 5.1
- V/V0 ([7]; day 10 after first treatment): 6.6
- V/V0 ([7]; day 13 after first treatment): 11.6
- V/V0 ([7]; day 16 after first treatment): 20.9
- V/V0 ([7]; day 20 after first treatment): 25.9
- V/V0 ([7]; day 23 after first treatment): 38.4
- V/V0 ([7]; day 27 after first treatment): 50.9
- V/V0 ([7]; day 31 after first treatment): 68.3
- V/V0 ([7]; day 34 after first treatment): 73.0
- V/V0 ([7]; day 38 after first treatment): 83.4
- V/V0 ([7]; day 42 after first treatment): 113.8
- V/V0 ([7]; day 45 after first treatment): 111.9
- V/V0 ([8]; day 0 after first treatment): 1
- V/V0 ([8]; day 4 after first treatment): 1.5
- V/V0 ([8]; day 7 after first treatment): 2.4
- V/V0 ([8]; day 12 after first treatment): 8.8
- V/V0 ([8]; day 14 after first treatment): 10.9
- V/V0 ([8]; day 17 after first treatment): 16.8
- V/V0 ([8]; day 21 after first treatment): 17.5
- V/V0 ([8]; day 25 after first treatment): 16.1
- V/V0 ([8]; day 28 after first treatment): 15.8
- V/V0 ([8]; day 32 after first treatment): 15.9
- V/V0 ([8]; day 35 after first treatment): 15.7
- inhibition at 0.016 µg/mL [9]: 15%
- inhibition at 0.08 µg/mL [9]: 43%
- inhibition at 0.4 µg/mL [9]: 69%
- inhibition at 2 µg/mL [9]: 91%
- inhibition at 10 µg/mL [9]: 100%
- inhibition at 50 µg/mL [9]: 100%
- inhibition at 0.016 µg/mL [10]: 3%
- inhibition at 0.08 µg/mL [10]: 9%
- inhibition at 0.4 µg/mL [10]: 37%
- inhibition at 2 µg/mL [10]: 65%
- inhibition at 10 µg/mL [10]: 89%
- inhibition at 50 µg/mL [10]: 100%
- inhibition at 0.016 µg/mL [11]: 2%
- inhibition at 0.08 µg/mL [11]: 7%
- inhibition at 0.4 µg/mL [11]: 39%
- inhibition at 2 µg/mL [11]: 62%
- inhibition at 10 µg/mL [11]: 86%
- inhibition at 50 µg/mL [11]: 100%
- LD50 at 336 h [12]: 7 mg/kg
- MTD at 336 h [12]: 5 mg/kg
